Data: ChEMBL document CHEMBL3044885, “Synthesis and fungicidal activity against Rhizoctonia solani of 2-alkyl (Alkylthio)-5-pyrazolyl-1,3,4-oxadiazoles (Thiadiazoles)” (2000)

How the values were obtained:
Rhizoctonia solani [1] = experiment: Fungicidal activity against Rhizoctonia solani inoculated on compound pre-treated fifth-leaf stage rice seedlings through foliar spraying assessed as inhibition of rice sheath blight disease at 100 ppm measured 4 days post fungal inoculation
Rhizoctonia solani [2] = experiment: Fungicidal activity against Rhizoctonia solani inoculated on compound pre-treated fifth-leaf stage rice seedlings through foliar spraying assessed as inhibition of rice sheath blight disease at 500 ppm measured 4 days post fungal inoculation

Row | Structure (SMILES) | inhibition at 100 ppm (Rhizoctonia solani [1]) [%] | inhibition at 500 ppm (Rhizoctonia solani [2]) [%]
1 | CCc1nn(C)c(-c2nnc(SC)s2)c1Cl | 90 | 90
2 | CCCCCSc1nnc(-c2c(Cl)c(CC)nn2C)o1 | 25 | 70
3 | CCCCCSc1nnc(-c2cc(CC)nn2C)o1 | 0 | 50
4 | C=CCSc1nnc(-c2c(Cl)c(CC)nn2C)s1 | 25 | 50
5 | CCCCCSc1nnc(-c2c(Cl)c(CC)nn2C)s1 | 25 | 70
6 | CCSc1nnc(-c2cc(CC)nn2C)o1 | 50 | 90
7 | CCCSc1nnc(-c2cc(CC)nn2C)o1 | 25 | 70
8 | CCc1nn(C)c(-c2nnc(SC)o2)c1Cl | 70 | 90
9 | COC(=O)Nc1nc2ccccc2[nH]1 [CARBENDAZIM] | 100 | 100
10 | CCCSc1nnc(-c2c(Cl)c(CC)nn2C)s1 | 70 | 70
11 | CCCCc1nnc(-c2c(Cl)c(CC)nn2C)o1 | 25 | 70
12 | CCc1nn(C)c(-c2nn(C)c(=O)o2)c1Cl | 0 | 25
13 | CCc1nn(C)c(-c2nnc(C(F)(F)F)o2)c1Cl | 25 | 70
14 | CCCSc1nnc(-c2c(Cl)c(CC)nn2C)o1 | 50 | 90
15 | CCc1cc(-c2nnc(S)o2)n(C)n1 | 25 | 50
16 | CCc1nn(C)c(-c2n[nH]c(=O)o2)c1Cl | 0 | 0
17 | CCSc1nnc(-c2c(Cl)c(CC)nn2C)s1 | 90 | 90
18 | CCc1nn(C)c(-c2nnc(CCl)o2)c1Cl | 50 | 90
19 | CCc1cc(-c2nnc(SC)o2)n(C)n1 | 50 | 90
20 | CCCCCCCSc1nnc(-c2c(Cl)c(CC)nn2C)o1 | 50 | 50
21 | CCc1nn(C)c(-c2nnc(S)o2)c1Cl | 0 | 25
22 | CCc1nnc(-c2c(Cl)c(CC)nn2C)o1 | 25 | 70
23 | CCOC(=O)C(C)Sc1nnc(-c2cc(CC)nn2C)o1 (configuration not stated) | 0 | 25
24 | CCc1nn(C)c(-c2nnc(S)s2)c1Cl | 90 | 100
25 | CCOC(=O)C(C)Sc1nnc(-c2c(Cl)c(CC)nn2C)o1 (configuration not stated) | 0 | 0
26 | CCCCCCCCSc1nnc(-c2c(Cl)c(CC)nn2C)o1 | 50 | 50
